Measurements taken from patent US8236824B2, “N-(pyrazole-3-yl)-benzamide derivatives as glucokinase activators” (Merck Patent Gesellschaft mit Beschränkter Haftung, priority 2007, dated 2012).

These compounds were tested against T1, glucokinase (GK), human enzyme (Homo sapiens, UniProt P35557) (assay: Glucokinase Activation Screening Assay (coupled enzyme assay with PK/LDH, NADH decline at 340 nm)). Settings: 2 mM glucose.
T1 sequence (P35557 1-465): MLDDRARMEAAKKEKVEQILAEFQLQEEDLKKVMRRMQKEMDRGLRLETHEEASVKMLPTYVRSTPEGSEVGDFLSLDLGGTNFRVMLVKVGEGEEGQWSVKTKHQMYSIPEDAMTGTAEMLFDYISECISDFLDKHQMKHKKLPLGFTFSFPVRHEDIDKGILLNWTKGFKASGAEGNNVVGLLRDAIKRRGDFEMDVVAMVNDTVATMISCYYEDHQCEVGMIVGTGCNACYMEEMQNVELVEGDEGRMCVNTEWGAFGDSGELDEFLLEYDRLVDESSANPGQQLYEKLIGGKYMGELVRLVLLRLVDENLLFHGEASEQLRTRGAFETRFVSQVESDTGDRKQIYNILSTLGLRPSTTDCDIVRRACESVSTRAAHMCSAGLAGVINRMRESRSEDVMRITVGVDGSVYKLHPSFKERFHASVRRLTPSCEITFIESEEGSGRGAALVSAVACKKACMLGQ
Type: biochemical
Method: Glucokinase Activation Screening Assay
GK activity (human or rat enzyme) is measured by an coupled enzyme assay using pyruvate kinase (PK) and lactate dehydrogenase (LDH) as coupling enzymes. GK activity is calculated from the decline in NADH monitored photometrically with a microliter plate (MTP) reader at 340 nm. For screening purposes, the GK assay is routinely run in a 384-MTP format, in a total volume of 33 μl/well. 10 μl of the ATP-regeneration solution (in HEPES-buffer*, pH 7.0, 6.73 U/ml pyruvate kinase, 6.8 U/ml lactate dehydrogenase) and 10 μl of the glucokinase-/glucose solution (15 μg/ml, 6.6 mM glucose in HEPES-buffer*, pH 7.0; the concentration of the glucose stock-solution was 660 mM in Millipore H2O) were mixed together with 3 μl of a 10% DMSO solution (in HEPES-buffer*, pH 7.0) containing […] the amounts of the compounds to achieve final compound concentrations in the range between 1 nM to 30 μM (sometimes 300 μM) in the assay solution (s. below). The solutions were mixed for 5 sec, and after a centrifugation at 243×g for 5 min, the solutions were preincubated for 25 min at room temperature.
The reaction was started by the addition of 10 μl of the NADH-/ATP-solution (4.29 mM NADH, 4.95 mM ATP, in HEPES-buffer*). The MTP was shaken for 5 sec., and then, the absorbance at 340 nm was monitored continuously in a MTP-reader (TECAN Spectro fluor plus) for the next 27 min (with a MTP-cycling time of 199 sec.). The final concentrations of the various components were as follows: 49.5 mM Hepes, pH 7.0, 1.49 mM PEP, 1.3 mM NADH, 49.5 mM KCl, 4.96 mM MgCl2, 1.5 mM Mg-ATP, 1.98 mM DTT, 2.04 U/ml pyruvate kinase, 2.06 U/milactate-dehydrogenase, 0.91% DMSO, 0.15 μg/well glucokinase, and test compounds in the range between 1 nM and 300 μM.
The change in the optical density (ΔOD340 nm) in the presence of the compound was expressed relative to the ΔOD340 nm, ctrl of the control incubation (in the presence of 2 mM glucose and 0.91% DMSO), taking into account the optical density of the blank sample (incubation in the absence of 2 mM glucose). For the determination of the half maximal effective concentration (EC50), the %-Ctrl-values were plotted in a semi-logarithmic graph against the conc. of the compound of interest. The data points were fitted to a sigmoid curve function (f(x)=((%-Ctrlmax-%-Ctrlmin)/(1−(EC50/x**^n(Hill)))%-Ctrlmin)) by a non-linear regression analysis. • Hepes-buffer (50 mM Hepes, pH 7.0, 5 mM MgCl2, 50 mM KCl, 1.5 mM PEP, 0.1% BSA). DTT was added to the Hepes-buffer from a 200× stock solution (in Millipore H2O) freshly each day. The final concentration of DTT in the Hepes-buffer is 2 mM. Culture of Pancreatic INS-1 Cells

SMILES	EC50
Cc1cc(NC(=O)c2cc(OCc3ccccc3)cc(OC(C)C)c2)nn1Cc1ccccn1 [A2, 3-Benzyloxy-5-isopropoxy-N-(5-methyl-1-pyridine-2-ylmethyl-1H-pyrazole-3-yl)-benzamide]	1000 to 10000 nM
COC[C@H](C)Oc1cc(O[C@@H](C)Cc2ccccc2)cc(C(=O)Nc2ccn(Cc3ccccn3)n2)c1 [A5, 3-((S)-2-Methoxy-1-methyl-ethoxy)-5-((S)-1-methyl-2-phenyl-ethoxy)-N-(1-pyridine-2-ylmethyl-1H-pyrazole-3-yl)-benzamide]	10 to 1000 nM
CC(C)Oc1cc(OCc2ccccc2)cc(C(=O)Nc2ccn(Cc3ccccn3)n2)c1 [A1, 3-Benzyloxy-5-isopropoxy-N-(1-pyridine-2-ylmethyl-1H-pyrazol-3-yl)-benzamide]	1000 to 10000 nM
CC(C)Oc1cc(OCc2ccccc2)cc(C(=O)Nc2ccn(Cc3ccccc3)n2)c1 [A3, 3-Benzyloxy-N-(1-benzyl-1H-pyrazol-3-yl)-5-isopropoxy-benzamide]	10 to 1000 nM
COC[C@H](C)Oc1cc(O[C@@H](C)Cc2ccccc2)cc(C(=O)Nc2ccn(Cc3ccccc3)n2)c1 [A4]	10 to 1000 nM

The next lines start with the values.

EC50	SMILES
10 to 1000 nM	CC(C)Oc1cc(OCCc2ccsc2)cc(C(=O)Nc2ccn(Cc3ccccn3)n2)c1 [A6, 3-isopropoxy-N-(1-pyridine-2-ylmethyl-1H-pyrazole-3-yl)-5-(2-thiophene-3-yl-ethoxy)-benzamide]
10 to 1000 nM	COC[C@H](C)Oc1cc(Oc2ccc(S(C)(=O)=O)cc2)cc(C(=O)Nc2ccn(Cc3cccnc3)n2)c1 [A10]
10 to 1000 nM	COC[C@H](C)Oc1cc(O[C@@H](C)Cc2ccccc2)cc(C(=O)Nc2ccn(Cc3ccncc3)n2)c1 [A8, 3-((S)-2-methoxy-1-methyl-ethoxy)-5-((S)-1-methyl-2-phenyl-ethoxy)-N-(1-pyridine-4-ylmethyl-1H-pyrazole-3-yl)-benzamide]
10 to 1000 nM	COC[C@H](C)Oc1cc(O[C@@H](C)Cc2ccccc2)cc(C(=O)Nc2ccn(Cc3cccnc3)n2)c1 [A7, 3-((S)-2-methoxy-1-methyl-ethoxy)-5-((S)-1-methyl-2-phenyl-ethoxy)-N-(1-pyridine-3-ylmethyl-1H-pyrazole-3-yl)-benzamide]
10 to 1000 nM	CC(C)Oc1cc(OCCc2ccsc2)cc(C(=O)Nc2ccn(Cc3ccccc3)n2)c1 [A9, N-(1-Benzyl-1H-pyrazol-3-yl)-3-isopropoxy-5-(2-thiophen-3-yl-ethoxy)-benzamide]
